Reference: ChEMBL document CHEMBL4393697, “Lipophilic efficient phenylthiazoles with potent undecaprenyl pyrophosphatase inhibitory activity” (Eur J Med Chem, 2019)
In brackets after ≈: the same amount, converted by molar mass. Activity calls are given as the source filed them. The rule behind the calls is not given here.

Legend:
Assay type in all cases: functional
[1] = system: Staphylococcus aureus; assay: Resistance index, ratio of MIC for antibacterial activity against methicillin-resistant Staphylococcus aureus USA400 treated repeatedly over 9 passages to MIC for antibacterial activity against methicillin-resistant Staphylococcus aureus USA400 treated for 18 to 20 hrs by broth microdilution assay
[2] = system: Staphylococcus aureus; assay: Resistance index, ratio of MIC for antibacterial activity against methicillin-resistant Staphylococcus aureus USA400 treated over 1 passage to MIC for antibacterial activity against methicillin-resistant Staphylococcus aureus USA400 treated for 18 to 20 hrs by broth microdilution assay
[3] = system: Streptococcus pneumoniae; assay: Antibacterial activity against Methicillin resistant Streptococcus pneumoniae ATCC 700677 assessed as reduction in bacterial cell growth incubated for 18 to 20 hrs by broth microdilution method
[4] = system: Staphylococcus aureus; assay: Bactericidal activity against methicillin-resistant Staphylococcus aureus USA300 assessed as reduction in bacterial cell growth incubated for 18 to 20 hrs followed by re-plating on tryptic soy agar plates at 37 degC for 18 hrs by broth microdilution assay
[5] = system: Staphylococcus aureus; assay: Bactericidal activity against methicillin resistant Staphylococcus aureus NRS119 assessed as reduction in bacterial cell growth incubated for 18 to 20 hrs followed by re-plating on tryptic soy agar plates at 37 degC for 18 hrs by broth microdilution assay
[6] = system: Staphylococcus aureus; assay: Antibacterial activity against vancomycin resistant Staphylococcus aureus VRS12 assessed as reduction in bacterial cell growth incubated for 18 to 20 hrs by broth microdilution method
[7] = system: Streptococcus pneumoniae; assay: Bactericidal activity against Cephalosporin resistant Streptococcus pneumoniae ATCC 51916 assessed as reduction in bacterial cell growth incubated for 18 to 20 hrs followed by re-plating on tryptic soy agar plates at 37 degC for 18 hrs by broth microdilution assay
[8] = system: Staphylococcus aureus; assay: Antibacterial activity against vancomycin resistant Staphylococcus aureus VRS10 assessed as reduction in bacterial cell growth incubated for 18 to 20 hrs by broth microdilution method
[9] = system: Staphylococcus aureus; assay: Antibacterial activity against vancomycin resistant Staphylococcus aureus VRS11a assessed as reduction in bacterial cell growth incubated for 18 to 20 hrs by broth microdilution method
[10] = system: Listeria monocytogenes; assay: Antibacterial activity against Listeria monocytogenes ATCC 19111 assessed as reduction in bacterial cell growth incubated for 18 to 20 hrs by broth microdilution method
[11] = system: Staphylococcus aureus; assay: Antibacterial activity against methicillin-resistant Staphylococcus aureus USA400 assessed as reduction in CFU at 4 x MIC preincubated for 12 hrs in Tryptic soy broth followed by incubation for 18 to 20 hrs on TSA plate by time-kill assay
[12] = system: Staphylococcus aureus; assay: Bactericidal activity against vancomycin resistant Staphylococcus aureus VRS11a assessed as reduction in bacterial cell growth incubated for 18 to 20 hrs followed by re-plating on tryptic soy agar plates at 37 degC for 18 hrs by broth microdilution assay
[13] = system: Staphylococcus aureus; assay: Bactericidal activity against Staphylococcus aureus ATCC 6538 assessed as reduction in bacterial cell growth incubated for 18 to 20 hrs followed by re-plating on tryptic soy agar plates at 37 degC for 18 hrs by broth microdilution assay
[14] = system: Enterococcus faecium; assay: Antibacterial activity against vancomycin resistant Enterococcus faecium ATCC 700221 assessed as reduction in bacterial cell growth incubated for 18 to 20 hrs by broth microdilution method
[15] = system: Streptococcus pneumoniae; assay: Antibacterial activity against Cephalosporin resistant Streptococcus pneumoniae ATCC 51916 assessed as reduction in bacterial cell growth incubated for 18 to 20 hrs by broth microdilution method
[16] = system: Staphylococcus aureus; assay: Bactericidal activity against vancomycin resistant Staphylococcus aureus VRS10 assessed as reduction in bacterial cell growth incubated for 18 to 20 hrs followed by re-plating on tryptic soy agar plates at 37 degC for 18 hrs by broth microdilution assay
[17] = system: Enterococcus faecium; assay: Bactericidal activity against vancomycin resistant Enterococcus faecium ATCC 700221 assessed as reduction in bacterial cell growth incubated for 18 to 20 hrs followed by re-plating on tryptic soy agar plates at 37 degC for 18 hrs by broth microdilution assay
[18] = system: Enterococcus faecalis; assay: Bactericidal activity against vancomycin resistant Enterococcus faecalis ATCC 51299 assessed as reduction in bacterial cell growth incubated for 18 to 20 hrs followed by re-plating on tryptic soy agar plates at 37 degC for 18 hrs by broth microdilution assay
[19] = system: Enterococcus faecalis; assay: Antibacterial activity against vancomycin resistant Enterococcus faecalis ATCC 51299 assessed as reduction in bacterial cell growth incubated for 18 to 20 hrs by broth microdilution method
[20] = system: Staphylococcus aureus; assay: Antibacterial activity against intracellular methicillin resistant Staphylococcus aureus USA400 infected in mouse J774 cells assessed as log10 reduction of viable bacterial cells incubated for 24 hrs followed by re-plating on tryptic soy agar plates at 37 degC for 18 to 22 hrs by broth microdilution assay
[21] = system: Staphylococcus aureus; assay: Bactericidal activity against Staphylococcus aureus NRS107 assessed as reduction in bacterial cell growth incubated for 18 to 20 hrs followed by re-plating on tryptic soy agar plates at 37 degC for 18 hrs by broth microdilution assay
[22] = system: Staphylococcus aureus; assay: Bactericidal activity against vancomycin resistant Staphylococcus aureus VRS12 assessed as reduction in bacterial cell growth incubated for 18 to 20 hrs followed by re-plating on tryptic soy agar plates at 37 degC for 18 hrs by broth microdilution assay

SMILES: CO[C@H]1/C=C/O[C@@]2(C)Oc3c(C)c(O)c4c(O)c(c(/C=N/N5CCN(C)CC5)c(O)c4c3C2=O)NC(=O)/C(C)=C\C=C\[C@H](C)[C@H](O)[C@@H](C)[C@@H](O)[C@@H](C)[C@H](OC(C)=O)[C@@H]1C [RIFAMPIN]
- Ratio [1]: >500000
- Ratio [2]: 29

SMILES: CN[C@H](CC(C)C)C(=O)N[C@H]1C(=O)N[C@@H](CC(N)=O)C(=O)N[C@H]2C(=O)N[C@H]3C(=O)N[C@H](C(=O)N[C@H](C(=O)O)c4cc(O)cc(O)c4-c4cc3ccc4O)[C@H](O)c3ccc(c(Cl)c3)Oc3cc2cc(c3O[C@@H]2O[C@H](CO)[C@@H](O)[C@H](O)[C@H]2O[C@H]2C[C@](C)(N)[C@H](O)[C@H](C)O2)Oc2ccc(cc2Cl)[C@H]1O [VANCOMYCIN]
- MIC [3]: 2 µg/mL (≈ 1.38 µM)
- MBC [4]: 4 µg/mL (≈ 2.76 µM)
- MBC [5]: 1 µg/mL (≈ 0.69 µM)
- MIC [6]: 64 µg/mL (≈ 44.2 µM)
- MBC [7]: 1 µg/mL (≈ 0.69 µM)
- MIC [8]: > 64 µg/mL
- MIC [9]: > 64 µg/mL
- MIC [10]: 1 µg/mL (≈ 0.69 µM)
- inhibition [11]: Active
- MBC [12]: > 64 µg/mL
- MBC [13]: 1 µg/mL (≈ 0.69 µM)
- MIC [14]: > 64 µg/mL
- MIC [15]: 1 µg/mL (≈ 0.69 µM)
- MBC [16]: > 64 µg/mL
- MBC [17]: > 64 µg/mL
- MBC [18]: > 64 µg/mL
- MIC [19]: 32 µg/mL (≈ 22.1 µM)
- inhibition [20]: inactive
- MBC [21]: 2 µg/mL (≈ 1.38 µM)
- MBC [22]: 64 µg/mL (≈ 44.2 µM)
